Measured values published in patent publication US20230114728A1 (Venatorx Pharmaceuticals, Inc., priority 2019, published 2023).
Values after ≈ are worked out from the molar mass of the structure shown.

Experiments:
Type in all cases: cell-based
[1] = test system: N. gonorrhoeae WHO L; experiment: Liquid broth MIC in Fastidious broth; conditions: Neisseria gonorrhoeae; N. gonorrhoeae strain WHO L; Fastidious broth; read-out: Minimum Inhibitory Concentration, N. gonorrhoeae WHO L
In short: (§1)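 Colonies were swabbed from chocolate agar after 24 h growth and standardised by optical density at 600 nm. Compounds were serially diluted twofold in Fastidious broth, and bacteria added to give 5×10^5 CFU/mL. After about 24 h at 36 °C in 5% CO2, the lowest concentration allowing under 10% growth was taken as MIC.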

[2] = test system: N. gonorrhoeae WHO G; experiment: Liquid broth MIC in Fastidious broth; conditions: Neisseria gonorrhoeae; N. gonorrhoeae strain WHO G; Fastidious broth; read-out: Minimum Inhibitory Concentration, N. gonorrhoeae WHO G
In short: as §1

[3] = test system: N. gonorrhoeae FA1090; experiment: Liquid broth MIC in Fastidious broth; conditions: Neisseria gonorrhoeae; N. gonorrhoeae strain FA1090; Fastidious broth; read-out: Minimum Inhibitory Concentration, N. gonorrhoeae FA1090
In short: as §1

[4] = test system: N. gonorrhoeae ATCC 49226; experiment: Liquid broth MIC in Fastidious broth; conditions: Neisseria gonorrhoeae, ATCC49226; N. gonorrhoeae strain ATCC 49226; Fastidious broth; read-out: Minimum Inhibitory Concentration, N. gonorrhoeae ATCC 49226
In short: as §1

[5] = test system: N. gonorrhoeae WHO K; experiment: Liquid broth MIC in Fastidious broth; conditions: Neisseria gonorrhoeae, read-out: Minimum Inhibitory Concentration, N. gonorrhoeae WHO K
In short: (§2)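 MIC = lowest concentration giving <10% growth relative to untreated wells, scored by eye after ~24 h at 36 °C, 5% CO2. Strains carry mosaic PBP2; inoculum 5×10^5 CFU/mL in Fastidious broth with 2-fold serial compound dilutions.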

[6] = test system: N. gonorrhoeae H041; experiment: Liquid broth MIC in Fastidious broth; conditions: Neisseria gonorrhoeae, H041, read-out: Minimum Inhibitory Concentration, N. gonorrhoeae H041
In short: as §2

[7] = test system: A. baumannii ATCC 19606; experiment: Broth microdilution MIC in CAMHB; conditions: Acinetobacter baumannii, ATCC19606; MHB; read-out: Minimum Inhibitory Concentration, A. baumannii ATCC 19606
In short: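 CLSI microdilution; CAMHB; inoculum 2-8×10^5 CFU/mL from 3-5 h 37° C culture; 2-fold compound series; 16-20 h, 37° C; MIC = lowest well without visible growth.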

[8] = test system: E. coli AG100; experiment: Broth microdilution MIC in CAMHB; conditions: Escherichia coli; E. coli AG100 (wild-type parent); MHB; read-out: Minimum Inhibitory Concentration, E. coli AG100
In short: (§3)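 Lowest compound concentration with no visible growth after 16-20 h at 37 °C defines MIC. Plates of 2-fold serial dilutions in cation-adjusted Mueller Hinton broth received 2-8×10^5 CFU/mL of exponentially grown cells, per CLSI methods; panel spans reference, hyper-permeable and efflux-pump-deleted strains.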

[9] = test system: E. coli D22; experiment: Broth microdilution MIC in CAMHB; conditions: Escherichia coli; E. coli D22 (hyper-permeable); MHB; read-out: Minimum Inhibitory Concentration, E. coli D22
In short: as §3

[10] = test system: E. coli ATCC 25922; experiment: Broth microdilution MIC in CAMHB; conditions: Escherichia coli, ATCC25922; E. coli ATCC 25922; MHB; read-out: Minimum Inhibitory Concentration, E. coli 25922
In short: as §3

[11] = test system: E. coli AG100A; experiment: Broth microdilution MIC in CAMHB; conditions: Escherichia coli, read-out: Minimum Inhibitory Concentration, E. coli AG100A
In short: as §3

SMILES	MIC [1] [µg/mL]	MIC [2] [µg/mL]	MIC [3] [µg/mL]	MIC [4] [µg/mL]	MIC [5] [µg/mL]	MIC [6] [µg/mL]	MIC [7] [µg/mL]	MIC [8] [µg/mL]	MIC [9] [µg/mL]	MIC [10] [µg/mL]	MIC [11] [µg/mL]
CCN1CCN(C(=O)NC(C(=O)N[C@H]2Cc3cccc(C(=O)O)c3OB2O)c2cccc(NS(N)(=O)=O)c2)C(=O)C1=O (stereo partly drawn) [Example 98, (3R)-3-(2-(4-ethyl-2,3-dioxopiperazine-1-carboxamido)-2-(3-(sulfamoylamino)phenyl)acetamido)-2-hydroxy-3,4-dihydro-2H-benzo[e][1,2]oxaborinine-8-carboxylic acid]	> 64	1 to 2 (≈ 1.66 to 3.32 µM)	0.25 to 0.5 (≈ 0.415 to 0.83 µM)	16 to 32 (≈ 26.6 to 53.1 µM)	16 to 32 (≈ 26.6 to 53.1 µM)	16 to 32 (≈ 26.6 to 53.1 µM)	> 128	8 to 16 (≈ 13.3 to 26.6 µM)	0.5 to 1 (≈ 0.83 to 1.66 µM)	8 to 16 (≈ 13.3 to 26.6 µM)	0.5 to 1 (≈ 0.83 to 1.66 µM)
CCN1CCN(C(=O)NC(C(=O)N[C@H]2Cc3cccc(C(=O)O)c3OB2O)c2cccc(S(N)(=O)=O)c2)C(=O)C1=O (stereo partly drawn) [Example 99, (3R)-3-(2-(4-ethyl-2,3-dioxopiperazine-1-carboxamido)-2-(3-sulfamoylphenyl)acetamido)-2-hydroxy-3,4-dihydro-2H-benzo[e][1,2]oxaborinine-8-carboxylic acid]	> 64	1 to 2 (≈ 1.7 to 3.4 µM)	0.25 to 0.5 (≈ 0.426 to 0.851 µM)	16 to 32 (≈ 27.2 to 54.5 µM)	16 to 32 (≈ 27.2 to 54.5 µM)	16 to 32 (≈ 27.2 to 54.5 µM)	> 128	32 to 64 (≈ 54.5 to 109 µM)	2 to 4 (≈ 3.4 to 6.81 µM)	32 to 64 (≈ 54.5 to 109 µM)	2 to 4 (≈ 3.4 to 6.81 µM)
